Counter-ions that a name gives are not always drawn. Like-named read-outs stand apart in the source and are kept apart here.
Experiments:
[1] = test system: HIV-1 (MT-2 cells infected with HIV-1); test: Inhibition of HIV-induced syncytia formation in MT-2 cells; type: cell-based; conditions: for IC50: Human immunodeficiency virus 1, MT2, MT-2 cells infected with HIV-1, read-out: INHIBITION OF SYNCYTIA FORMATION ED50
Description: This test is described in Quantitative Infectivity Assay for HIV-1 and -2., Nature 332: 469-470, 1988 as well as in AIDS RESEARCH AND HUMAN RETROVIRUSES, Vol. 4, No. 6, pages 449-455 (1988), Mary Ann Liebent, Inc., Publishers; in an article entitled "Nucleotide Dimers Suppress HIV Expression In VITRO". The results (IC50 means the concentration, in μM of drug, required to inhibit syncytia formation to the extent of 50%) of various assay(s) are combined and reported as % inhibition and IC50 (calculated).
ability of various compounds used to inhibit HIVinduced syncytia formatio
in a tissue culture assay using MT2 cells infected with HIV1. This test i
described by Nara et al., Quantitative infectivity assay for HIV1 and 2,
Nature 332, 469-470 (1988), as well as in AIDS RESEARCH AND HUMAN
RETROVIRUSES, vol. 4, No. 6, pages 449-455 (1988), Mary Ann Liebent, Inc.
Publishers, and in an article by Mariano Busso, et al., entitled
"Nucleotide Dimers Suppress HIV Expression In Vitro". The results
(ED50 means the concentration, in μM of drug, required to inhibit
syncytia formation to the extent of 50%) of various assay are combined an
reported in Table I. In comparison, the known commercial compound, AZT,
percent reductions in syncytia formation at concentrations of
approximately 1 μM and 0.5 μM, respectively.

[2] = test system: HIV in primary human peripheral blood lymphocytes; test: Primary PBL assay: inhibition of viral replication (p24 & RNA); type: cell-based; conditions: Human immunodeficiency virus 1, Lymphocyte, primary human lymphocytes infected with HIV, days three and four, read-out: PBL INHIBITION OF VIRAL REPLICATION (p24 & RNA) ED50
Method: ^3 The utility of the compounds of the invention is further
infection in primary peripheral blood lymphocytes (primary PBL assay). Th
primary PBL assay offers the following advantages:
(a) The assays are performed with primary human lymphocytes. Thereby,
undesired testing of transformed cell lines is avoided in which host cell
and virus may have undergone processes of mutual adaptation. Performance
of cell culture in serum containing media closely mimics the in vivo
situation. (b) The primary PBL assay distinguishes between true antiviral
effect which is due to the drug and cytostatic/cytotoxic reactions. (c)
Viral replication is precisely followed by kinetic measurement of viral
nucleic acids and proteins. (d) Nucleic acids (total HIVRNA intra and
extracellular) and protein (secreted p24) are measured in parallel which
permits one to differentiate between the compound's effect on virus
replication and on the expression of viral proteins. This leads to
additional information regarding the efficacy of the test compound. (e)
Tolerance of the cell culture against low amounts of organic solvents als
permits the investigation of hydrophobic substances. (f) The dose of the
drug causing half maximal suppression of virus replication is determined.
(g) The screening system is standardized and automated to a high degree.
The primary PBL assay uses the following procedure:
Effects of the compounds of the invention on cell proliferation are determined by lymphocyte proliferation assays. Starting with a 100 micromolar solution, the compound is serially diluted 10 fold. One tenth of the concentration of a compound causing half maximal inhibition of cellular proliferation is employed for all subsequent testing.
Peripheral human lymphocytes are isolated by density gradient centrifugation. After stimulation by mitogen the cells are infected with a standardized preparation of HIV. Subsequently, the infected cells are cultured in the presence of the drug for four days. Individual cultures are established to measure viral replication three and four days following infection. Untreated cells and AZT-treated cells are included as controls in parallel with the drugs under investigation.
The amount of viral core protein p24 synthesized and release by the infected cells is determined in the supernatant by the capture-ELISA technique on days three and four. By comparing with a standard preparation, the amount of protein produced by the virus infected cells is quantified.
The total amount of viral RNA synthesized by the infected lymphocytes is determined by a special nucleic acid hybridization on days three and four of culture. By including a standard preparation of HIV-RNA the amount of synthesized RNA is quantified.
In addition, viability of HIV-infected cells is determined in parallel with assays for viral p24 and RNA. In order to evaluate the half maximal antiviral effect of the drug, a concentration dependency of the drug action is measured.
Numerous examples of the compounds of the invention are assayed according to this procedure. The anti-HIV activity, as measured by the inhibition of the release of core p24 protein in HIV infected human lymphocytes, is used to calculate ED50 -antiviral (the concentration required to give a 50% reduction in p24 synthesis).

[3] = molecular target: T1, viral reverse transcriptase (Human immunodeficiency virus type 1 group M subtype B, UniProt P04585); test: Viral reverse transcriptase inhibition, cell free assay; type: biochemical, human immunodeficiency virus (HIV-1)
T1 construct: Viral reverse transcriptase is found in extracts from bacterial clones; made in house; host or cells: Escherichia coli (extracts of bacterial clones, by the procedure of Larder et al., EMBO J. 6:3133-3137, 1987)
Procedure, shortened: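 E. coli-expressed HIV-1 RT extract was incubated with inhibitor, 10 μM [35S]-dNTP, poly rC/rG template and oligo dG/dT primer in Tris pH 8.3 with Mg2+ at 37 °C (30 min; 15 min in an alternative version). DNA incorporation was counted on filters and reported as % inhibition (at 100 μM in one version) and IC50.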

[4] = read-out: RT % INHIBITION (100 μM), 100 μM, poly rC or poly rG template

Structure (SMILES) | EC50 ([1]; Human immunodeficiency virus 1, MT2, read-out: concentration giving 50 percent reduction in syncytia formation) | IC100 ([1]; Human immunodeficiency virus 1, MT2, read-out: concentration giving 100 percent reduction in syncytia formation) | EC50 [2] | IC50 [1] | inhibition at 100 µM [3, 4] | inhibition at 100 µM ([3]; read-out: RT % INHIBITION (100 μM))
Cc1cn([C@H]2C[C@H](N=[N+]=[N-])[C@@H](CO)O2)c(=O)[nH]c1=O [AZT, 3'-azido-3'-deoxy-thymidine, reference compound] | ~0.5 µM | ~1 µM |  |  |  | 
CCNc1cccnc1N1CCN(C(=O)c2cc(C)c(OC)c(C)c2)CC1 [Example 1, 1-[4-Methoxy-3,5-dimethylbenzoyl]-4-[3-(ethylamino)-2-pyridinyl]piperazine] |  |  | 1 µM | 10 µM | 60 to 79% | 
CCNc1cccnc1N1CCN(Cc2cc(C)c(OC)c(C)c2)CC1 [Example 3, 1-[4-Methoxy-3,5-dimethylbenzyl]-4-[3-(ethylamino)-2-pyridinyl]piperazine] |  |  | 1 µM | 1 to 2.5 µM | 70 to 76% | 
CCNc1cccnc1N1CCN(Cc2cc(C)c(O)c(C)c2)CC1 [Example 4, 1-[4-Hydroxy-3,5-dimethylbenzyl]-4-[3-(ethylamino)-2-pyridinyl]piperazine] |  |  | ≥ 10 µM | 2.5 µM | 58% | 
CCCNc1cccnc1N1CCN(Cc2cc(C)c(OC)c(C)c2)CC1 [Example 5, 1-[4-Methoxy-3,5-dimethylbenzyl]-4-[3-(propylamino)-2-pyridinyl]-piperazine] |  |  |  | 2 µM | 39 to 42% | 
CCOc1ccccc1N1CCN(C(=O)c2cc3ccccc3[nH]2)CC1 [Example 10, 1-[Indolyl-2-carbonyl]-4-[2-ethoxyphenyl]piperazine] |  |  | > 1 µM | 5 µM | 72 to 87% | 
CCNc1cccnc1N1CCN(C(=O)c2cc3ccccc3[nH]2)CC1 [Example 11, 1-[Indolyl-2-carbonyl]-4-[3-(ethylamino)-2-pyridinyl]piperazine] |  |  | 0.01 to 0.1 µM | 0.3 to 3 µM | 95 to 98% | 
CCOc1ccccc1N1CCN(C(=O)c2cc3cc(OC)ccc3[nH]2)CC1 [Example 12, 1-[5-Methoxyindolyl-2-carbonyl]-4-[2-ethoxyphenyl]piperazine] |  |  | 5 to 10 µM | < 0.3 µM | 64 to 80% | 
CCNc1cccnc1N1CCN(C(=O)c2cc3cc(OC)ccc3[nH]2)CC1 [Example 16A, 1-[5-Methoxyindolyl-2-carbonyl]-4-[3-(ethylamino)-2-pyridinyl]-piperazine, hydrochloride] |  |  | 0.001 µM | < 0.2 µM |  | 
CC(C)Nc1cccnc1N1CCN(C(=O)c2cc3ccccc3[nH]2)CC1 [Example 17, 1-[Indolyl-2-carbonyl]-4-[3-(1-methylethylamino)-2-pyridinyl]piperazine] |  |  | ≤ 0.01 µM | ≤ 0.3 µM | 96% | 
CCN(CC)c1cccnc1N1CCN(C(=O)c2cc3ccccc3[nH]2)CC1 [Example 19, 1-[Indolyl-2-carbonyl]-4-[3-(N,N-diethylamino)-2-pyridinyl]-piperazine] |  |  | 0.1 to 1 µM | 3 µM | 65 to 71% | 
CCNc1cccnc1N1CCN(Cc2cc3ccccc3[nH]2)CC1 [Example 20, 1-[Indolyl-2-methyl]-4-[3-(ethylamino)-2-pyridinyl]piperazine] |  |  | 1 µM | 10 µM | 64% | 
CCCNc1cccnc1N1CCN(C(=O)c2cc3cc(F)ccc3[nH]2)CC1 [Example 21, 1-[5-Fluoroindolyl-2-carbonyl]-4-[3-(propylamino)-2-pyridinyl]piperazine] |  |  | 0.01 to 1 µM | 1 µM | 44 to 74% | 
CCNc1cccnc1N1CCN(C(=O)c2cc3cc(Cl)ccc3[nH]2)CC1 [Example 22, 1-[5-Chloroindolyl-2-carbonyl]-4-[3-(ethylamino)-2-pyridinyl]piprazine] |  |  | 0.01 µM | 0.3 to 5 µM | 76 to 82% | 
CCNc1cccnc1N1CCN(C(=O)c2cc3cc(F)ccc3[nH]2)CC1 [Example 23, 1-[5-Fluoroindolyl-2-carbonyl]4-[3-(ethylamino)-2-pyridinyl]-piperazine] |  |  | 0.003 to 0.01 µM | < 0.3 µM | 92 to 95% | 
CCNc1cccnc1N1CCN(C(=O)c2cc3cc(CC)ccc3[nH]2)CC1 [Example 24, 1-[5-Ethylindolyl-2-carbonyl]-4-[3-(ethylamino)-2-pyridinyl]piperazine] |  |  | 0.01 to 0.1 µM | 16 µM | 65 to 70% | 
CC(C)Nc1cccnc1N1CCN(C(=O)c2cc3cc([N+](=O)[O-])ccc3[nH]2)CC1 [Example 103, 1-[5-Nitroindolyl-2-carbonyl]-4-[3-(1-methylethylamino)-2-pyridinyl]piperazine] |  |  | < 0.01 µM |  | 72% | 
CC(=O)Nc1ccc2[nH]c(C(=O)N3CCN(c4ncccc4NC(C)C)CC3)cc2c1 [Example 104, 1-[5-Acetamidoindolyl-2-carbonyl]-4-[3-(1-methylethylamino)-2-pyridinyl]piperazine] |  |  | 0.01 µM |  | 92 to 96% | 
CC(C)Nc1cccnc1N1CCN(C(=O)c2cc3cc(NS(C)(=O)=O)ccc3[nH]2)CC1 [Example 105, 1-[5-Methanesulfonamidoindolyl-2-carbonyl]-4-[3-(1-methylethylamino)-2-pyridinyl]piperazine] |  |  | ≤ 0.001 µM |  |  | 82 to 96%
COCC(C)Nc1cccnc1N1CCN(C(=O)c2cc3cc(F)ccc3[nH]2)CC1 (centres unmarked) [Example 106, 1-[5-Fluoroindolyl-2-carbonyl]-4-[3-(2-methoxy-1-methylethylamino)-2-pyridinyl]piperazine] |  |  | ≤ 0.001 µM |  | 76 to 81% | 
C=CCNc1cccnc1N1CCN(Cc2cc(C)c(OC)c(C)c2)CC1 [Example 116, 1-[4-Methoxy-3,4-dimethylbenzyl]-4-(3-(2-propenylamino)-2-pyridinyl]piperazine, hydrochloride] |  |  | < 10 µM |  | 45 to 52% | 
CC(C)Nc1cccnc1N(C)CCCCN(C)C(=O)c1cc2ccccc2[nH]1 [Example 124, N,N'-Dimethyl-N-(indolyl-2-carbonyl)-N'-[3-(1-methylethyl-amino)-2-pyridyl]-1,4-butanediamine] |  |  | > 0.1 µM |  | 95% | 
CC(C)Nc1cccnc1N1CCN(C(=O)c2cc3ccc(F)cc3[nH]2)CC1 [Example 132] |  |  | 0.001 to 0.01 µM |  | 95 to 98% | 
